According to PMC9516332 (Frontiers in Oncology, 2022):

Tests used:
Assay in all cases: Kinase panel profiling at 1 µmol/L (MSA or IMAP), percentage inhibition
Assay type in all cases: biochemical
[1] = target: T1, panel of 255 wild-type kinases (Homo sapiens, UniProt O00418); details: kinase EEF2K; 1 µmol/L single concentration; read-out: %-inhibition at 1 µmol/L, EEF2K
T1 sequence (O00418 1-725): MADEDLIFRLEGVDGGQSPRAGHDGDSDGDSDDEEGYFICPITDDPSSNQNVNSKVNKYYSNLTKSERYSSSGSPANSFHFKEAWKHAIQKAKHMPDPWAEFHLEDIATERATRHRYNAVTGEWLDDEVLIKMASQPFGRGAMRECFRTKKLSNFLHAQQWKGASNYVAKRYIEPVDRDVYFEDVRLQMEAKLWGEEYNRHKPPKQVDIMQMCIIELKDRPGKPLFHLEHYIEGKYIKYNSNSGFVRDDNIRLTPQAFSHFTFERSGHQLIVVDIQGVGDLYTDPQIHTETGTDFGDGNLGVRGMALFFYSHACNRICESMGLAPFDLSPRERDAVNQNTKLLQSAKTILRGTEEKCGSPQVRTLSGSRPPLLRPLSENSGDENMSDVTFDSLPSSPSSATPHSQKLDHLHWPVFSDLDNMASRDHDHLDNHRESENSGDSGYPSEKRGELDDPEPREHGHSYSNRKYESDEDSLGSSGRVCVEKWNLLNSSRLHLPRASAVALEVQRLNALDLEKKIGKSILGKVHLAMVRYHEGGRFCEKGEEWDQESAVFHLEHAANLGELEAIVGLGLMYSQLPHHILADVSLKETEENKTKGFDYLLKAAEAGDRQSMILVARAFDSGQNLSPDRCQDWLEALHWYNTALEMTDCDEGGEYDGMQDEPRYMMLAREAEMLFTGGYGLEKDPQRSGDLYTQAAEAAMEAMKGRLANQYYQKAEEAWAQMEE

[2] = target: T2, panel of 255 wild-type kinases (Homo sapiens, UniProt O15146); details: MUSK; 1 µmol/L single concentration; read-out: %-inhibition, MUSK
T2 sequence (O15146 24-869): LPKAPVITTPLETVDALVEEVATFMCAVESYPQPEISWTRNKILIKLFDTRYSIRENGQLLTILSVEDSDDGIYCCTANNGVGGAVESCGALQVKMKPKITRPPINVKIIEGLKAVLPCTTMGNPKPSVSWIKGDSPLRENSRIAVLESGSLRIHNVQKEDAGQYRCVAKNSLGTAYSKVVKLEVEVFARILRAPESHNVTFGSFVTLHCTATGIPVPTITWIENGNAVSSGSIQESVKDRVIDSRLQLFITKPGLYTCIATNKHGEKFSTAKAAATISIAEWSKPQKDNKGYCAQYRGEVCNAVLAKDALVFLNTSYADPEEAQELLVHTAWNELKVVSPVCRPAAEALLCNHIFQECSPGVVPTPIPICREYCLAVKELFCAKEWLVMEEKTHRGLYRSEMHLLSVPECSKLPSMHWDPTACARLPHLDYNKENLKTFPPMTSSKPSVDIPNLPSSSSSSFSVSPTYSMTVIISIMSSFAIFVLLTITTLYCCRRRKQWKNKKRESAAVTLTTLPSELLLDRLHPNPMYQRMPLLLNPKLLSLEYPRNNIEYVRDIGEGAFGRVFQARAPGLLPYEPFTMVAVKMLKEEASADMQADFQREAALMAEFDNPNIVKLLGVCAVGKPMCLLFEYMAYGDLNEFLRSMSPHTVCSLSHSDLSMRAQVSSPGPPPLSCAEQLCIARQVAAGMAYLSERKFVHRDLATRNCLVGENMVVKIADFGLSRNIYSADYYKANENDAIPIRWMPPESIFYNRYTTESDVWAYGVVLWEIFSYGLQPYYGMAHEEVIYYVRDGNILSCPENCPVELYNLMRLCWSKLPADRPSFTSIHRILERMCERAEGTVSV

[3] = target: panel of 255 wild-type kinases (Homo sapiens, UniProt O60674); details: kinase JAK2; 1 µmol/L single concentration; read-out: %-inhibition at 1 µmol/L, JAK2
[4] = target: panel of 255 wild-type kinases (Homo sapiens, UniProt P49759); details: kinase CLK1; 1 µmol/L single concentration; read-out: %-inhibition at 1 µmol/L, CLK1
[5] = target: T3, panel of 255 wild-type kinases (Homo sapiens, UniProt Q8TF76); details: kinase Haspin; 1 µmol/L single concentration; read-out: %-inhibition at 1 µmol/L, Haspin
T3 sequence (Q8TF76 1-798): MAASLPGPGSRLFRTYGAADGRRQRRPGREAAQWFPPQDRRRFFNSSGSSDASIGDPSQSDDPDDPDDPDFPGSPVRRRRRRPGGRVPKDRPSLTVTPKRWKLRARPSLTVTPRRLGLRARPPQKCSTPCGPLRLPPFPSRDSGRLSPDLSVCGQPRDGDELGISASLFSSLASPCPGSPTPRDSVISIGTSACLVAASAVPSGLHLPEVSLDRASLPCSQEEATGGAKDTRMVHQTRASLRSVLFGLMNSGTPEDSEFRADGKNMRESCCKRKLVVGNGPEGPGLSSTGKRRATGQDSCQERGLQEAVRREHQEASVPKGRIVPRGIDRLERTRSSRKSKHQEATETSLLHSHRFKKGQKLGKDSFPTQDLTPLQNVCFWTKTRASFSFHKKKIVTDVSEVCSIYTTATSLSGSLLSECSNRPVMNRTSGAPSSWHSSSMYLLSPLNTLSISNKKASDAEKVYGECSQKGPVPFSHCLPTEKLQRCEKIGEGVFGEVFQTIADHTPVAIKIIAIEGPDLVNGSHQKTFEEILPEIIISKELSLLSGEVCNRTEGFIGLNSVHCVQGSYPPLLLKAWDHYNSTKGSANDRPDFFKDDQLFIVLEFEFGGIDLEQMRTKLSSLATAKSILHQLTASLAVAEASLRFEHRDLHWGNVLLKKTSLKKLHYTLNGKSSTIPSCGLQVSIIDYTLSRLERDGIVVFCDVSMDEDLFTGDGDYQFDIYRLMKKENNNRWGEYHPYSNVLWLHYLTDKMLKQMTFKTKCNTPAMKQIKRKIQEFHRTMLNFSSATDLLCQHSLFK

[6] = target: T4, panel of 255 wild-type kinases (Homo sapiens, UniProt Q96PN8); details: kinase TSSK3; 1 µmol/L single concentration; read-out: %-inhibition at 1 µmol/L, TSSK3
T4 sequence (Q96PN8 1-268): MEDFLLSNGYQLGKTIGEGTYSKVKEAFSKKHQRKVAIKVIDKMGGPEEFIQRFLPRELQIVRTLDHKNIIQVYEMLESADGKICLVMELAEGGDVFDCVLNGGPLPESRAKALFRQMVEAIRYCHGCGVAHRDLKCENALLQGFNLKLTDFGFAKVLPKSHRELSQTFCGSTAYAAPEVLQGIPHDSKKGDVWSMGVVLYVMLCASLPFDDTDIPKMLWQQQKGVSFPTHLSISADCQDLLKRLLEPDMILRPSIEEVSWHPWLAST

inhibition at 1 µM [1]	inhibition at 1 µM [2]	inhibition at 1 µM [3]	inhibition at 1 µM [4]	inhibition at 1 µM [5]	inhibition at 1 µM [6]	SMILES
2.4%	7%	-0.0152%	5%	3.64%	-3%	Cn1cnc2c(F)c(Nc3ccc(Br)cc3Cl)c(C(=O)NOCCO)cc21 [selumetinib]
-2.79%	2.26%	4.51%	7%	0.893%	-0.029%	Cc1cc(Nc2ncnc3ccc(NC4=NC(C)(C)CO4)cc23)ccc1Oc1ccn2ncnc2c1 [tucatinib]

SMILES	inhibition at 1 µM [1]	inhibition at 1 µM [2]	inhibition at 1 µM [3]	inhibition at 1 µM [4]	inhibition at 1 µM [5]	inhibition at 1 µM [6]
C=CC(=O)N1CCC([C@@H]2CCNc3c(C(N)=O)c(-c4ccc(Oc5ccccc5)cc4)nn32)CC1 [zanubrutinib]	0.514%	-1.31%	-0.375%	4.66%	-1.75%	0.315%
